# Laboratory results taken from ChEMBL document CHEMBL3217608, “Alkaloids from Rutaceae: activities of canthin-6-one alkaloids and synthetic analogues on glioblastoma stems cells” (Medchemcomm, 2012).
# Activity calls are given as the source filed them. The rule behind the calls is not given here.
# Tests used:
# TG1 [1] = experiment: (§1) Antiproliferative against human TG1 cells at 30 to 300 uM after 24 hrs by WST-1 assay; assay type: functional
# [2] = Antiproliferative against human NSC-24 cells at 30 to 300 uM after 24 hrs by WST-1 assay; assay type: cell-based; conditions: nsc-24, 24 h
# [3] = target: RAC-alpha serine/threonine-protein kinase (Homo sapiens) (UniProt P31749); experiment: Inhibition of AKT phosphorylation in human NSC-24 cells at 300 uM after 30 mins by Western blot analysis; assay type: cell-based
# [4] = as §1; assay type: functional
# [5] = target: RAC-alpha serine/threonine-protein kinase (Homo sapiens) (UniProt P31749); experiment: Inhibition of AKT phosphorylation in human TG10 cells at 300 uM after 30 mins by Western blot analysis; assay type: cell-based
# [6] = target: RAC-alpha serine/threonine-protein kinase (Homo sapiens) (UniProt P31749); experiment: Inhibition of AKT phosphorylation in human TG1 cells at 300 uM after 30 mins by Western blot analysis; assay type: cell-based
# [7] = Antiproliferative against human TG10 cells at 30 to 300 uM after 24 hrs by WST-1 assay; assay type: functional
# [8] = (§2) Antiproliferative against human TG10 cells at 300 uM after 24 hrs by WST-1 assay; assay type: functional
# [9] = Antiproliferative against human NSC-24 cells at 300 uM after 24 hrs by WST-1 assay; assay type: cell-based; conditions: nsc-24, 24 h
# [10] = (§3) Antiproliferative against human TG1 cells at 300 uM after 24 hrs by WST-1 assay; assay type: functional
# [11] = Antiproliferative against human TG10 cells after 24 hrs by WST-1 assay; assay type: functional
# [12] = Antiproliferative against human TG1 cells after 24 hrs by WST-1 assay; assay type: functional
# TG10 = experiment: as §2; assay type: functional
# TG1 [13] = experiment: as §3; assay type: functional
# RAC-alpha serine/threonine-protein kinase (Homo sapiens), sequence (P31749 whole entry): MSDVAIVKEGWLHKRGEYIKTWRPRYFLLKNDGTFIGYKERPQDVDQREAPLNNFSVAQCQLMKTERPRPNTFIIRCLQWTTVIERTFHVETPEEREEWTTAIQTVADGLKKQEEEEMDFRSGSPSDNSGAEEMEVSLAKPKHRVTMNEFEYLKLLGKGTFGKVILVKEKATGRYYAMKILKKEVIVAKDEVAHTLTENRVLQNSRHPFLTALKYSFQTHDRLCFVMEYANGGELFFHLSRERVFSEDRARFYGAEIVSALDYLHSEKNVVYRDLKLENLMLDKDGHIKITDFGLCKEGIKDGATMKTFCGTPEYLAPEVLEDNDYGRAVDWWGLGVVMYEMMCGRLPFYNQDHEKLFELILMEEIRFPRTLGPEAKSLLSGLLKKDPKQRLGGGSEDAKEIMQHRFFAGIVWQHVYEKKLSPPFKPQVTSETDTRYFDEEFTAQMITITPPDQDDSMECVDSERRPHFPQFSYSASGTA
inhibition [5],inhibition [6],SMILES,Activity (TG1 [1]),Activity [4],other results
–,–,O=C1CCc2nccc3c4ccccc4n1c23,inactive,–,–
Active,Active,COc1cc2nccc3c4ccccc4n(c1=O)c23 [5-METHOXYCANTHINONE],–,40%,Activity [2]: 60%; inhibition [3]: Active; Activity [7]: 35%
Active,Active,O=c1ccc2nccc3c4cc(OCc5ccccc5)ccc4n1c23,–,40%,Activity [8]: 85%; inhibition [3]: inactive; Activity [9]: Non-toxic; Activity [10]: 40%
–,–,O=c1c2ccccc2c2nccc3c4ccccc4n1c32,inactive,–,–
–,–,Cn1nnc2c(C(N)=O)ncn2c1=O [TEMOZOLOMIDE],–,–,Activity [11]: >80%; Activity [12]: >80%
–,–,Nc1cc(=O)n2c3ccccc3c3ccnc1c32,inactive,–,–
Active,Active,O=c1ccc2nccc3c4ccccc4n1c23 [CANTHIN-6-ONE],–,40%,Activity (TG10): Active; Activity [2]: 60%; Activity [7]: 35%; Activity (TG1 [13]): Active
–,–,O=c1ccc2c3c(cc[n+]2[O-])c2ccccc2n13,inactive,–,–
–,–,COc1ccc2c(c1)c1ccnc3ccc(=O)n2c31,inactive,–,–
